Measured values as given in patent US9428520B2, “Daphne genkwa extracts, and pharmaceutical composition containing fractions of the extracts or compounds separated from the extracts as active ingredients for preventing or treating atopic dermatitis” (priority 2011, dated 2016).

Assays:
atopy patients = assay: Atopy treatment effect in atopy patient; assay type: in vivo, human; settings: 5 ug/ml spread on the skin, FIG. 5
Experimental: After spreading genekwadapnin or yuanhuacine on the skin of atopy patients, atopy treatment effect of the compound was confirmed.
Particularly, 5 ug/ml of genekwadapnin or yuanhuacine was spread on the skin of atopy patients, followed by observation for 5˜20 days. The treatment effect was confirmed by Medream Skin Clinic (Goejeong-dong, Seogu, Daejeon, Korea).

Balb/C mouse = assay: Atopy treatment effect in DNCB atopy induced mouse model; assay type: in vivo; settings: score 10˜13 group with severe atopic symptoms, FIG. 4
Experimental: DNCB, one of allergens, was spread on the shaved skin of a normal Balb/C mouse to induce atopy intentionally. Atopy symptoms varied from the dose of DNCB and the treatment period, which were classified into different score groups (score 4˜8 group and score 10˜13 group). In the mouse group (score 4˜8 group) which was treated with a lower dose of DNCB, atopic skin was recovered to normal skin within 24 hours from the treatment of genekwadapnin or yuanhuacine. […] At that time, the test was performed in duplicate with 10 mice each.

PKC isotype = assay: Intracellular mechanism: phosphorylation level of PKC isotype in NK92 cells (western blot); assay type: cell-based, human; settings: 500 ng/ml, 12 hours, FIG. 6
Experimental: To investigate the intracellular mechanism of genekwadapnin or yuanhuacine, the NK92 cells cultured in <Example 2> were treated with genekwadapnin or yuanhuacine at the concentration of 500 ng/ml. 12 hours later, phosphorylation level of PKC isotype was investigated by using antibodies. The quantity of protein used herein was confirmed by using GAPDH.
Particularly, the cells treated with genekwadapnin or yuanhuacine were dissolved in ice by using cold SDS-lysis buffer [(50 mM HEPES, 150 mM NaCl, 0.2 mM EDTA, 0.5% NP-40, 0.1% SDS, 1 mM Na3VO4, 10 mM NaF, and complete Protein Inhibitor Cocktail (Roche)] for 30 minutes. The dissolved cell solution was spinned at the speed of 13,000 rpm for 30 minutes in a high-speed rotating machine to precipitate insoluble part and then water soluble part was separated. The separated cell aqueous solution was quantified, followed by electrophoresis using 10˜20% SDS-PAGE. Cellular protein separated on the gel was transcribed onto PVDF membrane (Millipore, Billerica, Mass., USA) at 100 V for 2 hours. To confirm PCK isotype phosphorylated in the cells, poly rabbit anti-PKD1, -phosphoPKD1 (Ser916), -phosphoPKDl (Ser744/748), -phosphoPKCα/βII, -phosphoPKCδ, -phosphoPKCθ, and -phosphoPKCζ/λ IgG (Cell signaling Technology, USA) (1:1000) were used as primary antibodies. As a secondary antibody, horseradish peroxidase peroxidase-conjugated goat anti-rabbit IgG (Santa Cruz Biotechnology, USA) (1:3000) was treated at room temperature for 60 minutes. To confirm the equal amount of cellular protein, poly rabbit anti-GAPDH IgG (Santa Cruz Biotechnology, Pasadena, Calif., USA) was used.

NC mouse = assay: Atopy treatment effect in NC mouse model; assay type: in vivo; settings: local spreading on skin, FIG. 3
Text: NC mouse is the mouse showing typical atopy symptom when it is raised in the conventional space. Genekwadapnin or yuanhuacine was spread locally on NC mouse starting to show atopy symptom, followed by observation of changes of atopy symptom.

NK92 cells = assay: RT-PCR of cytokine mRNA levels in NK92 cells; assay type: cell-based, human; settings: 2 ng, FIG. 2A
Experimental: (§1) Human cell lines (A549, NK92, muDC, Jurkat) were cultured in a 37° C., 5% CO2 humidified incubator.
Particularly, NK92 (human NK lymphoma), the IL-2 dependent NK cell line, was purchased from ATCC (American Type Culture Collection). The NK92 cell line was maintained in α-MEM (Life Technologies, Karlsruhe, Germany) supplemented with 20% FCS (HyClone, Logan, Utah), 2 mM […], 100 μg/ml penicillin, 100 μg/ml streptomycin (Life Technologies) and 100 U/ml IL-2 (Chiron, Emeryville, Calif.).
(§2) RT-PCR was performed to investigate the changes of mRNA levels in relation to the inducement of IFN-γ, IL-2, and IL-12 in A549, NK92, muDC, and Jurkat cells cultured in <Example 2>. These cells were cultured in the presence of 2 ng of genekwadapnin or yuanhuacine for 12 hours.
Phase II RT-PCR was performed with oligo-dT primer, reverse transcriptase, specific primer set, and Taq polymerase (Takara, Shiga, Japan). Total RNA was isolated according to the standard protocol. cDNA was synthesized by using Accusript High Fidelity 1st Strand cDNA Synthesis Kit (Stratagene) according to the manufacturer's instruction. 1 μl of the synthesized cDNA was used for PCR with 20 μl of reaction mixture containing 0.5 U ExTaq DNA polymerase, 1× buffer, 1 mM dNTP mix (Takara) and specific primer set. PCR amplification was performed using GeneAmp PCR system 2700 (Applied Biosystems, Foster city, CA, USA) as follows: predenaturation at 94° C. for 5 minutes, denaturation at 94° C. for 45 seconds, annealing at 56° C. for 45 seconds, polymerization at 72° C. for 1 minute, 25˜40 cycles from denaturation to polymerization, and final extension at 72° C. for 7 minutes. PCR primers shown in [Table 1] were designed by using Primer 3 program, which were purchased from Bioneer (Daejeon, Korea). […]
(§3) The PCR product was electrophoresed on 1.5% agarose gel, which was stained with ethidium bromide (EtBr) and then visualized by using Gel Doc 2000 UV trans-illuminator (Bio-Rad Laboratories, Hercules, Calif., […]). Analysis was performed with Quantity One software (Bio-Rad Laboratories).

A549 cells = assay: RT-PCR of cytokine mRNA levels in A549 cells; assay type: cell-based, human; settings: 2 ng, FIG. 2A
Experimental: as §1, §2
Phase II RT-PCR was performed with oligo-dT primer, reverse transcriptase, specific primer set, and Taq polymerase (Takara, Shiga, Japan). Total RNA was isolated according to the standard protocol. cDNA was synthesized by using Accusript High Fidelity 1st Strand cDNA Synthesis Kit (Stratagene) according to the manufacturer's instruction. 1 μl of the synthesized cDNA was used for PCR with 20 μl of reaction mixture containing 0.5 U ExTaq DNA polymerase, 1× buffer, 1 mM dNTP mix (Takara) and specific primer set. PCR amplification was performed using GeneAmp PCR system 2700 (Applied Biosystems, Foster city, CA, USA) as follows: predenaturation at 94° C. for 5 minutes, denaturation at 94° C. for 45 seconds, annealing at 56° C. for 45 seconds, polymerization at 72° C. for 1 minute, 25˜40 cycles from denaturation to polymerization, and final extension at 72° C. for 7 minutes. PCR primers shown in [Table 1] were designed by using Primer 3 program, which were purchased from Bioneer (Daejeon, Korea). At this time, GAPDH was used as the internal control.
as §3

[1] = NK92 cells (printed NR92), 12 hours after treatment

C=C(C)[C@@]12OC3(/C=C/C=C/CCCCC)O[C@@H]1[C@@H]1[C@@H]4O[C@]4(CO)[C@@H](O)[C@]4(O)C(=O)C(C)=C[C@H]4[C@@]1(O3)[C@H](C)[C@H]2OC(=O)c1ccccc1 [yuanhuacine]
time until atopic skin was recovered to normal (atopy patients; minor symptoms): 5 days
time until atopic skin was recovered to normal (atopy patients; severe symptoms): 20 days
speed of recovery versus the control group (Balb/C mouse): at least two times faster
PKD1 level (PKC isotype): not changed
phosphorylation of other types of PKC isotype (PKC isotype): not phosphorylated
phosphorylation of serin residues (744th/748th, and 916th sites of PKD1 protein) (PKC isotype): confirmed
atopy symptom on the back where the compound was spread (NC mouse): significantly reduced
skin biopsy: distribution of inflammatory cells, phenotype of the treated area (NC mouse): almost normal phenotype
transcript of type II cytokine, IL-4 (NK92 cells; [1]): not induced
transcripts of Type I cytokines, IFN-γ, IL-2, and IL-12 (NK92 cells; [1]): significantly increased
transcripts of IL-15 and IL-18 (NK92 cells; NK92 cells, 12 hours): not controlled
transcript of type II cytokine, IL-4 (A549 cells; 12 hours after treatment): not induced
transcripts of Type I cytokines, IFN-γ, IL-2, and IL-12 (A549 cells; 12 hours after treatment): significantly increased
transcripts of IL-15 and IL-18 (A549 cells; 12 hours): not controlled
